pIC50: −log10 of the molar value.
Assays:
Assay type in all cases: biochemical
IDH1 mutant (R132H) = molecular target: T1, IDH1 mutant (R132H) (Homo sapiens, UniProt O75874, R132H); assay: Mutant IDH1-R132H Fluorescence Assay (Resazurin based); conditions: 10 nM IDH1 R132H, 4 mM α-ketoglutarate, NADPH, 1.5 h at room temperature
T1 construct: purchased BPS Bioscience 71099-2
Method in brief: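 Recombinant IDH1 R132H (10 nM) was run with α-ketoglutarate (4 mM) and NADPH ([…]) for 1.5 h at room temperature in Tris pH buffer with MgCl2, BSA and mercaptoethanol. Remaining NADPH was detected via diaphorase/resazurin fluorescence (ex 540/em 590 nm). IC50 came from a 4-parameter logistic fit.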

IDH1-WT = molecular target: T2, IDH1-WT (Homo sapiens, UniProt O75874); assay: IDH1-WT Fluorescence Assay (Resazurin based); conditions: 1 nM IDH1-WT, 200 μM isocitrate, 15 μM NADP+, 30 min at room temperature
T2 construct: purchased BPS Bioscience 71075-2
Method: IC50 values of compounds against IDH1-WT was determined by Resazurin based Fluorescence assay. Assays were performed in Buffer (50 mM Tris HCl, 10 mM MgCl2, 0.03% BSA, 2 mM ß-mercaptoethanol) where total reaction volume was 25 μL in low-volume 96-well plates. Serially diluted compounds (3-fold) in DMSO (0.5% in final reaction) were incubated with cocktail of isocitrate (200 μM; Cat # I1252-1G, Sigma), NADP^+ (15 μM; Cat # N0505-500MG, Sigma) and buffer for 5 min, following addition of IDH1-WT enzyme (1 nM; Cat #71075-2, BPS Bioscience) and incubated in dark at room temperature for 30 min. After that, 12.5 μL detection solution containing Resazurin (60 μM; Cat #62758-13-8, Sigma) and Diaphorase (40 μg/ml; Cat # D2197-300UN, Sigma) in buffer was added and incubated for 15 min. Readings were taken using a Synergy Neo Plate reader (BioTek, Winooski) at single excitation of 540 nm and emission at 590 nm respectively.
The % (percent) activity of test samples was calculated as (Sample−Min)×100/(Max−Min). [Max: DMSO control, complete reaction with enzyme with DMSO and Min: No enzyme with DMSO]. Percent inhibition (100−% activity) was fitted to the “four-parameter logistic model” in XLfit for determination of IC50 values.

IDH2 mutant (R140Q) = molecular target: T3, IDH2 mutant (R140Q) (Homo sapiens, UniProt P48735, R140Q); assay: Mutant IDH2-R140Q Fluorescence Assay (Resazurin based); conditions: 5 nM IDH2 R140Q, 4 hr pre-incubation, 1 mM α-ketoglutarate, 5 μM NADPH, 2 h
T3 construct: purchased BPS Bioscience 71100-2
T3 sequence (P48735 40-452 R140Q): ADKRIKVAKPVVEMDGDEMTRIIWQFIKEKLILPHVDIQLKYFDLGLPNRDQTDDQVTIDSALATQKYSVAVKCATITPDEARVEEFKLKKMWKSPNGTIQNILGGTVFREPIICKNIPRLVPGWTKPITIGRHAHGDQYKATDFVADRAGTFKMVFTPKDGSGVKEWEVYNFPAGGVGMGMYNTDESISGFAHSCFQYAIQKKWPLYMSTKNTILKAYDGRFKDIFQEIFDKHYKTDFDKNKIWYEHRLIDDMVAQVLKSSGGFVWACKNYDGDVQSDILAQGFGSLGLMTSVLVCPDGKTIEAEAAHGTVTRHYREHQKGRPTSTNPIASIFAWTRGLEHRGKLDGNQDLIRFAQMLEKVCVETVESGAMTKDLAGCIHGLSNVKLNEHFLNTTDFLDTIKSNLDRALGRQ
Method: IC50 values of compounds against IDH2 mutant (R140Q) were determined by Resazurin based Fluorescence assay. Assay was performed in Buffer (25 mM Tris HCl, 150 mM NaCl, 10 mM MgCl2, 0.03% BSA, 2 mM 1-mercaptoethanol) where total reaction volume was 12.5 μL in low-volume 384-well plates (Cat #4511, Corning). Serially diluted compounds (3-fold) were pre-incubated with IDH2 R140Q mutant enzyme (5 nM; Cat #71100-2, BPS Bioscience) for 4 hr at RT (25° C.) followed by addition of cocktail of α-ketoglutarate (1 mM; Cat #75892-25G, Sigma), and NADPH (5 μM; Cat # N1630-100MG, Sigma) with buffer in dark at room temperature for 2 h. After 2 h incubation, 6.25 μL detection solution containing Resazurin (30 μM; (Cat #62758-13-8, Sigma) and Diaphorase (40 ug/ml; Cat # D2197-300UN, Sigma) in buffer was added and incubated for 15 min. Readings were taken in a Synergy Neo Plate reader (BioTek, Winooski) at single excitation of 540 nm and emission at 590 nm respectively.
The % activity of test samples was calculated as (Sample−Min)×100/(Max−Min). [Max: DMSO control, complete reaction with enzyme with DMSO and Min: No enzyme with DMSO]. Percent inhibition (100−% activity) was fitted to the “four-parameter logistic model” in XLfit for determination of IC50 values.

T2 sequence (O75874 whole entry): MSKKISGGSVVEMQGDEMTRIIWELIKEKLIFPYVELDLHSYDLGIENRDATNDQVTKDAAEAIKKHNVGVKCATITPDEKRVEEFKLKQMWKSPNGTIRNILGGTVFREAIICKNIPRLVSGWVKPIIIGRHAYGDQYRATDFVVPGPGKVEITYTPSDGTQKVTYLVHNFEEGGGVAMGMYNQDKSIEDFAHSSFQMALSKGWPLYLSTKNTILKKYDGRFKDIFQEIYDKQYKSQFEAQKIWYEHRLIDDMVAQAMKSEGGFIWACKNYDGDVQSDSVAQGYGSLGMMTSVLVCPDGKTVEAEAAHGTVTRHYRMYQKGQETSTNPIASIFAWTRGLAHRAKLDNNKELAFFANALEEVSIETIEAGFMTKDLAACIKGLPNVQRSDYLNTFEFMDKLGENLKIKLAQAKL
T1 sequence (O75874 whole entry R132H): as the sequence (O75874 whole entry) above, with R132H counted along it

Structure (SMILES)	pIC50 (IDH1 mutant (R132H))	pIC50 (IDH1-WT)	pIC50 (IDH2 mutant (R140Q))
CC(C)[C@H]1COC(=O)N1c1ncnc(N[C@@H](C)c2cn(-c3ccc(C(F)(F)F)cc3)cn2)n1 [Compound 1.5, (S)-4-isopropyl-3-(4-((S)-1-(1-(4-(trifluoromethyl)phenyl)-1H-imidazol-4-yl)ethylamino)-1,3,5-triazin-2-yl)oxazolidin-2-one]	6.24	< 4.52	< 4.30
CC(C)[C@H]1COC(=O)N1c1ncnc(N[C@@H](C)c2ccc(-c3ccc(Cl)cc3)cn2)n1 [Compound 1.10, (S)-3-(4-((S)-1-(5-(4-chlorophenyl)pyridin-2-yl)ethylamino)-1,3,5-triazin-2-yl)-4-isopropyloxazolidin-2-one]	5.56	< 4.52	< 4.30
Cc1cc([C@H](C)Nc2ncnc(N3C(=O)OC[C@@H]3C(C)C)n2)ncc1-c1ccnc(C(F)(F)F)c1 [Compound 1.21, (S)-4-isopropyl-3-(4-((S)-1-(4-methyl-2′-(trifluoromethyl)-3,4′-bipyridin-6-yl)ethylamino)-1,3,5-triazin-2-yl)oxazolidin-2-one]	5.85	< 4.30	< 4.30
CC(C)[C@H]1COC(=O)N1c1ncnc(N[C@@H](C)c2cc3cc(Cl)ccc3[nH]c2=O)n1 [Compound 1.23, (S)-3-(4-((S)-1-(6-chloro-2-oxo-1,2-dihydroquinolin-3-yl)ethylamino)-1,3,5-triazin-2-yl)-4-isopropyloxazolidin-2-one]	6.44	< 4.30	< 4.30
C[C@H](Nc1ncnc(N2C(=O)OC[C@@H]2c2ccccc2)n1)c1cn(-c2ccc(C(F)(F)F)cc2)cn1 [Compound 1.26, (S)-4-phenyl-3-(4-((S)-1-(1-(4-(trifluoromethyl)phenyl)-1H-imidazol-4-yl)ethylamino)-1,3,5-triazin-2-yl)oxazolidin-2-one]	5.52	< 4.30	< 4.30
Cc1nc(N[C@@H](C)c2ccc(Oc3ccccc3)cc2)nc(N2C(=O)OC[C@@H]2C(C)C)n1 [Compound 1.27, (S)-4-isopropyl-3-(4-methyl-6-((S)-1-(4-phenoxyphenyl)ethylamino)-1,3,5-triazin-2-yl)oxazolidin-2-one]	6.40	< 4.30	< 4.30
CC(C)[C@H]1COC(=O)N1c1ncnc(NCc2ccc(Oc3ccccc3)cc2)n1 [Compound 1.28, (S)-4-isopropyl-3-(4-(4-phenoxybenzylamino)-1,3,5-triazin-2-yl)oxazolidin-2-one]	5.34	< 4.30	< 4.30
CC[C@H]1COC(=O)N1c1ncnc(N[C@@H](C)c2ccc(Oc3ccccc3)cc2)n1 [Compound 1.29, (S)-4-ethyl-3-(4-((S)-1-(4-phenoxyphenyl)ethylamino)-1,3,5-triazin-2-yl)oxazolidin-2-one]	6.31	< 4.30	< 4.30
COc1nc(N[C@@H](C)c2ccc(Oc3ccccc3)cc2)nc(N2C(=O)OC[C@@H]2C(C)C)n1 [Compound 1.31, (S)-4-isopropyl-3-(4-methoxy-6-((S)-1-(4-phenoxyphenyl)ethylamino)-1,3,5-triazin-2-yl)oxazolidin-2-one]	6.31	< 4.52	< 4.30
CC[C@H]1COC(=O)N1c1nc(C)nc(N[C@@H](C)c2cn(-c3ccc(C(F)(F)F)cc3)cn2)n1 [Compound 1.40, (S)-4-ethyl-3-(4-methyl-6-((S)-1-(1-(4-(trifluoromethyl)phenyl)-1H-imidazol-4-yl)ethylamino)-1,3,5-triazin-2-yl)oxazolidin-2-one]	6.53	< 4.30	< 4.30
CC[C@H]1COC(=O)N1c1nc(N[C@@H](C)c2cn(-c3ccc(C(F)(F)F)cc3)cn2)nc(OC)n1 [Compound 1.41, (S)-4-ethyl-3-(4-methoxy-6-((S)-1-(1-(4-(trifluoromethyl)phenyl)-1H-imidazol-4-yl)ethylamino)-1,3,5-triazin-2-yl)oxazolidin-2-one]	6.15	< 4.30	< 4.30
CC[C@H]1COC(=O)N1c1nc(C)nc(N[C@@H](C)c2ccc(Oc3ccc(F)cc3)cc2)n1 [Compound 1.58, (S)-4-ethyl-3-(4-((S)-1-(4-(4-fluorophenoxy)phenyl)ethylamino)-6-methyl-1,3,5-triazin-2-yl)oxazolidin-2-one]	6.51	< 4.30	< 4.30

Next, values leading:

pIC50 (IDH1 mutant (R132H))	pIC50 (IDH1-WT)	pIC50 (IDH2 mutant (R140Q))	Structure (SMILES)
5.54	< 4.52	< 4.30	CC(C)[C@H]1COC(=O)N1c1ncnc(N[C@@H](C)c2ccc(Cl)c(Cl)c2)n1 [Compound 1.7, (S)-3-(4-((S)-1-(3,4-dichlorophenyl)ethylamino)-1,3,5-triazin-2-yl)-4-isopropyloxazolidin-2-one]
6.19	< 4.52	< 4.30	CC(C)[C@H]1COC(=O)N1c1ncnc(N[C@@H](C)c2ccc(Oc3ccccc3)cc2)n1 [Compound 1.9, (S)-4-isopropyl-3-(4-((S)-1-(4-phenoxyphenyl)ethylamino)-1,3,5-triazin-2-yl)oxazolidin-2-one]
6.11	< 4.52	< 4.30	CC(C)[C@H]1COC(=O)N1c1ncnc(N[C@@H](C)c2cn(-c3ccc(Cl)cc3)cn2)n1 [Compound 1.13, (S)-3-(4-((S)-1-(1-(4-chlorophenyl)-1H-imidazol-4-yl)ethylamino)-1,3,5-triazin-2-yl)-4-isopropyloxazolidin-2-one]
5.78	< 4.30	< 4.30	CC(C)[C@H]1COC(=O)N1c1ncnc(N[C@@H](C)c2ccc(Oc3ccccc3)cn2)n1 [Compound 1.19, (S)-4-isopropyl-3-(4-((S)-1-(5-phenoxypyridin-2-yl)ethylamino)-1,3,5-triazin-2-yl)oxazolidin-2-one]
< 4.52	< 4.52	< 4.30	CC[C@@H](Nc1ncnc(N2C(=O)OC[C@@H]2C(C)C)n1)c1ccc(Oc2ccccc2)cc1 [Compound 1.34, (S)-4-isopropyl-3-(4-((R)-1-(4-phenoxyphenyl)propylamino)-1,3,5-triazin-2-yl)oxazolidin-2-one]
6.06	< 4.52	< 4.30	CC[C@H](Nc1ncnc(N2C(=O)OC[C@@H]2C(C)C)n1)c1ccc(Oc2ccccc2)cc1 [Compound 1.35, (S)-4-isopropyl-3-(4-((S)-1-(4-phenoxyphenyl)propylamino)-1,3,5-triazin-2-yl)oxazolidin-2-one]
4.71	< 4.30	< 4.30	CC(C)[C@H]1COC(=O)N1c1ncnc(N[C@@H](C)c2ccccc2)n1 [Compound 1.37, (S)-4-isopropyl-3-(4-((S)-1-phenylethylamino)-1,3,5-triazin-2-yl)oxazolidin-2-one]
